Like-named read-outs stand apart in the source and are kept apart here.
Legend:
DDR1 = DDR1 LanthaScreen Europium Kinase Binding assay
Procedure: (§1) DDR1 and DDR2 binding assays were performed using Life Technologies LanthaScreen™ Europium Kinase Binding assay. The compounds were incubated with 5 nM DDR1 (Carna Biosciences) or 5 nM DDR2 (Life Technologies) for 1 hour at room temperature in white 384-well OptiPlate (PerkinElmer), containing 20 nM or 10 nM Kinase Tracer 178 respectively and 2 nM Europium labelled anti-GST antibody (Life Technologies) in assay buffer (50 mM HEPES pH 7.5, 10 mM MgCl2, 1 mM EGTA and 0.01% BRIJ35). The ratio of fluorescence emission 665 nm/615 nm after excitation at 340 nm was obtained using the Tecan Spark 20M plate reader. IC50 values were determined in GraphPad Prism 8.0 software, using 4 parameter model: log(inhibitor) vs. response. IC50 values were converted in Ki using the Cheng-Prusoff equation (Ki=IC50/(1+[Tracer]/Kd).

DDR2 = DDR2 LanthaScreen Europium Kinase Binding assay
Procedure: as §1

DDR1 receptor = assay: DDR1 cell based assay (PathHunter U2OS DDR1); details: U2OS-DDR1 cells, bovine Type II Collagen 20 μg/ml stimulation
Procedure: The inhibition of DDR1 receptor activation by compounds was evaluated by PathHunter® U2OS DDR1 assay (Eurofins DiscoverX), according to the manufacturer's instructions. Briefly, U2O5-DDR1 cells were seeded in white 384-well plates at a density of 5000 cells/well and incubated for 2 hours at 37° C. and 5% CO2. Cells were then treated with compounds at different concentrations and incubated for 30 minutes, before stimulation with bovine Type II Collagen 20 μg/ml and incubation overnight at 37° C. and 5% CO2. PathHunter Detection Reagents were prepared according to the protocol provided by DiscoverX and 20 μl/well of this mix were added to each well. After incubating the plates for 1 hour at room temperature in the dark, luminescence signal was acquired with a plate reader. Raw data were normalized to vehicle control (0% for normalization) and positive control (100% for normalization; cells treated with 20 μg/ml collagen II) and IC50 parameters were calculated in GraphPad Prism 8.0 software, using sigmoidal dose-response curve fitting with variable slope.

[1] = 5 nM DDR1, 1 hour at room temperature, Ki from IC50 by Cheng-Prusoff, read-out: Ki DDR1
[2] = 5 nM DDR2, 1 hour at room temperature, Ki from IC50 by Cheng-Prusoff, read-out: Ki DDR2

`CN1CCN(Cc2cc(NC(=O)c3ccc4c(c3)N(c3cncnc3)CC4)cc(C(F)(F)F)c2)CC1` [Example C1, N-(3-((4-methylpiperazin-1-yl)methyl)-5-(trifluoromethyl)phenyl)-1-(pyrimidin-5-yl)indoline-6-carboxamide, reference compound] was tested, and the Ki (DDR1; read-out: DDR1 Ki) was 30000 nM and the Ki (DDR2; read-out: DDR2 Ki) was 50000 nM.
`CN1CCN(Cc2ccc(NC(=O)c3ccc4c(c3)N(Cc3cncc(C(N)=O)c3)CC4)cc2C(F)(F)F)CC1` [Example 17, 1-((5-carbamoylpyridin-3-yl)methyl)-N-(4-((4-methylpiperazin-1-yl)methyl)-3-(trifluoromethyl)phenyl)indoline-6-carboxamide] showed a Ki (DDR1; [1]) of less than 25 nM, a Ki (DDR2; [2]) of less than 25 nM and an IC50 (DDR1 receptor) of 25 to 50 nM.
Compound `CN1CCN(Cc2cc(C(=O)Nc3ccc4c(c3)N(Cc3cnc(N)nc3)CC4)cc(C(F)(F)F)c2)CC1` [Example 21, N-(1-((2-aminopyrimidin-5-yl)methyl)indolin-6-yl)-3-((4-methylpiperazin-1-yl)methyl)-5-(trifluoromethyl)benzamide] has a Ki (DDR1; [1]) of less than 25 nM, a Ki (DDR2; [2]) of less than 25 nM and an IC50 (DDR1 receptor) of 50 to 80 nM.
Compound `CNC(=O)c1cc(CN2CCc3ccc(C(=O)Nc4cc(-n5cnc(C)c5)cc(C(F)(F)F)c4)cc32)ccn1` [Example 2, N-(3-(4-methyl-1H-imidazol-1-yl)-5-(trifluoromethyl)phenyl)-1-((2-(methylcarbamoyl)pyridin-4-yl)methyl)indoline-6-carboxamide] has a Ki (DDR1; [1]) of less than 25 nM, a Ki (DDR2; [2]) of less than 25 nM and an IC50 (DDR1 receptor) of 25 to 50 nM.
`CNc1ncc(CN2CCc3ccc(C(=O)Nc4ccc(CN5CCN(C)CC5)c(C(F)(F)F)c4)cc32)cn1` [Example 12, 1-((2-(methylamino)pyrimidin-5-yl)methyl)-N-(4-((4-methylpiperazin-1-yl)methyl)-3-(trifluoromethyl)phenyl)indoline-6-carboxamide] showed a Ki (DDR1; [1]) of less than 25 nM, a Ki (DDR2; [2]) of 25 to 50 nM and an IC50 (DDR1 receptor) of less than 25 nM.
`CN1CCN(Cc2ccc(NC(=O)c3ccc4c(c3)N(Cc3cncnc3N)CC4)cc2C(F)(F)F)CC1` [Example 10, 1-((4-aminopyrimidin-5-yl)methyl)-N-(4-((4-methylpiperazin-1-yl)methyl)-3-(trifluoromethyl)phenyl)indoline-6-carboxamide] showed a Ki (DDR1; [1]) of less than 25 nM, a Ki (DDR2; [2]) of less than 25 nM and an IC50 (DDR1 receptor) of less than 25 nM.
Work on `CN1CCN(Cc2cc(NC(=O)c3ccc4c(c3)N(Cc3cncnc3)CC4)cc(C(F)(F)F)c2)CC1` [Example 3, N-(3-((4-methylpiperazin-1-yl)methyl)-5-(trifluoromethyl)phenyl)-1-(pyrimidin-5-ylmethyl)indoline-6-carboxamide] yielded a Ki (DDR1; [1]) of less than 25 nM, a Ki (DDR2; [2]) of less than 25 nM and an IC50 (DDR1 receptor) of 50 to 80 nM.
Work on `CN1CCN(Cc2ccc(NC(=O)c3ccc4c(c3)N(Cc3cnc(N)cn3)CC4)cc2C(F)(F)F)CC1` [Example 11, 1-((5-aminopyrazin-2-yl)methyl)-N-(4-((4-methylpiperazin-1-yl)methyl)-3-(trifluoromethyl)phenyl)indoline-6-carboxamide] yielded a Ki (DDR1; [1]) of less than 25 nM, a Ki (DDR2; [2]) of less than 25 nM and an IC50 (DDR1 receptor) of less than 25 nM.
Work on `COCCn1cc(Nc2ncc(CN3CCc4ccc(C(=O)Nc5cc(CN6CCN(C)CC6)cc(C(F)(F)F)c5)cc43)cn2)cn1` [Example 19, 1-((2-((1-(2-methoxyethyl)-1H-pyrazol-4-yl)amino)pyrimidin-5-yl)methyl)-N-(3-((4-methylpiperazin-1-yl)methyl)-5-(trifluoromethyl)phenyl)indoline-6-carboxamide] yielded a Ki (DDR1; [1]) of less than 25 nM, a Ki (DDR2; [2]) of less than 25 nM and an IC50 (DDR1 receptor) of less than 25 nM.
Compound `CN1CCN(Cc2ccc(NC(=O)c3ccc4c(c3)N(Cc3cnc(N)nc3)CC4)cc2C(F)(F)F)CC1` [Example 8, 1-((2-aminopyrimidin-5-yl)methyl)-N-(4-((4-methylpiperazin-1-yl)methyl)-3-(trifluoromethyl)phenyl)indoline-6-carboxamide] has a Ki (DDR1; [1]) of less than 25 nM, a Ki (DDR2; [2]) of 25 to 50 nM and an IC50 (DDR1 receptor) of less than 25 nM.
`CN1CCN(Cc2ccc(NC(=O)c3ccc4c(c3)N(Cc3ccc(N)nc3)CC4)cc2C(F)(F)F)CC1` [Example 9, 1-((6-aminopyridin-3-yl)methyl)-N-(4-((4-methylpiperazin-1-yl)methyl)-3-(trifluoromethyl)phenyl)indoline-6-carboxamide] showed a Ki (DDR1; [1]) of less than 25 nM, a Ki (DDR2; [2]) of 25 to 50 nM and an IC50 (DDR1 receptor) of less than 25 nM.
In the case of `CN(C)CCn1cc(Nc2ncc(CN3CCc4ccc(C(=O)Nc5cc(CN6CCN(C)CC6)cc(C(F)(F)F)c5)cc43)cn2)cn1` [Example 20, 1-((2-((1-(2-(dimethylamino)ethyl)-1H-pyrazol-4-yl)amino)pyrimidin-5-yl)methyl)-N-(3-((4-methylpiperazin-1-yl)methyl)-5-(trifluoromethyl)phenyl)indoline-6-carboxamide], the Ki (DDR1; [1]) is reported as less than 25 nM, the Ki (DDR2; [2]) is reported as less than 25 nM and the IC50 (DDR1 receptor) is reported as 50 to 80 nM.
`CN1CCN(c2cncc(CN3CCc4ccc(C(=O)Nc5cccc(C(F)(F)F)c5)cc43)c2)CC1=O` [Example 7, 1-((5-(4-methyl-3-oxopiperazin-1-yl)pyridin-3-yl)methyl)-N-(3-(trifluoromethyl)phenyl)indoline-6-carboxamide] gave a Ki (DDR1; [1]) of less than 25 nM, a Ki (DDR2; [2]) of less than 25 nM and an IC50 (DDR1 receptor) of less than 25 nM.
`Cc1cn(-c2cc(NC(=O)c3ccc4c(c3)N(Cc3cncnc3)CC4)cc(C(F)(F)F)c2)cn1` [Example 1, N-(3-(4-methyl-1H-imidazol-1-yl)-5-(trifluoromethyl)phenyl)-1-(pyrimidin-5-ylmethyl)indoline-6-carboxamide] showed a Ki (DDR1; [1]) of less than 25 nM, a Ki (DDR2; [2]) of less than 25 nM and an IC50 (DDR1 receptor) of 50 to 80 nM.
With `Cc1cn(-c2cc(NC(=O)c3ccc4c(c3)N(c3cncnc3)CC4)cc(C(F)(F)F)c2)cn1` [Example C2, N-(3-(4-methyl-1H-imidazol-1-yl)-5-(trifluoromethyl)phenyl)-1-(pyrimidin-5-yl)indoline-6-carboxamide, reference compound] the Ki (DDR1; read-out: DDR1 Ki) was 58000 nM and the Ki (DDR2; read-out: DDR2 Ki) was 4000 nM.
Work on `CC(=O)Nc1ncc(CN2CCc3ccc(C(=O)Nc4ccc(CN5CCN(C)CC5)c(C(F)(F)F)c4)cc32)cn1` [Example 15, 1-((2-acetamidopyrimidin-5-yl)methyl)-N-(4-((4-methylpiperazin-1-yl)methyl)-3-(trifluoromethyl)phenyl)indoline-6-carboxamide] yielded a Ki (DDR1; [1]) of less than 25 nM and an IC50 (DDR1 receptor) of less than 25 nM.
`CNC(=O)c1cc(CN2CCc3ccc(NC(=O)c4cc(-n5cnc(C)c5)cc(C(F)(F)F)c4)cc32)ccn1` [Example 6, N-methyl-4-((6-(3-(4-methyl-1H-imidazol-1-yl)-5-(trifluoromethyl)benzamido)indolin-1-yl)methyl)picolinamide] gave a Ki (DDR1; [1]) of less than 25 nM, a Ki (DDR2; [2]) of less than 25 nM and an IC50 (DDR1 receptor) of 25 to 50 nM.
`CN1CCN(Cc2cc(C(=O)Nc3ccc4c(c3)N(c3cncnc3)CC4)cc(C(F)(F)F)c2)CC1` [Example C3, 3-((4-methylpiperazin-1-yl)methyl)-N-(1-(pyrimidin-5-yl)indolin-6-yl)-5-(trifluoromethyl)benzamide, reference compound] showed a Ki (DDR1; read-out: DDR1 Ki) of 58000 nM and a Ki (DDR2; read-out: DDR2 Ki) of 58000 nM.

Source: patent publication US20240190847A1, “INDOLINE DERIVATIVES AS DDR1 AND DDR2 INHIBITORS” (CHIESI FARMACEUTICI S.P.A., priority 2021, published 2024)
